Data: patent US20100021924A1, “Transgenic animal and methods for decreasing cardiac cell death via cardiac-specific sir2alpha overexpression” (priority 2005, published 2010)
“Also recorded” adds a separate entry of the source. Each block holds one molecule with its values, some of them ahead of it.

Assays:
[1] = tested on: cardiac myocytes; assay: Cell Death Detection ELISA (cytoplasmic mono- and oligo-nucleosomes); assay type: cell-based, rat; details: for mono- and oligo-nucleosomes in the cytoplasm (nuclear fragmentation): marker of apoptosis
Method: Myocytes were transduced with an adenoviral vector encoding LacZ (Ad-LacZ) or Sir2α (Ad-Sir2α) with or without serum for 48 hours followed by Cell Death ELISA (FIG. 1A). Alternatively, myocytes were transduced Ad-LacZ or Ad-Sir2α with or without H2O2 (100 μM) for 48 hours followed by Cell Death ELISA (FIG. 1B). […] Mean OD value of control was designated as 1. Each column represents mean from 3 different culture preparations.
(§1) Subsequently, it was determined whether cardiac myocyte death by Sir2α inhibition was due to apoptosis. […] Similar results were obtained using TUNEL staining. To examine whether activation of caspase-3 was involved in myocyte death induced by NAM and TSA, the effect of DEVD-CHO, a cell permeable inhibitor of caspase-3, upon myocyte death was examined.
(§2) Cardiac-specific overexpression of Sir2α was subsequently examined. […] After 7 days, most myocytes were dead in a low-density culture condition. […] It has been shown that pyruvate increases, while lactate decreases, the cellular NAD^+/NADH ratio, thereby positively or negatively regulating the activity of endogenous Sir2α (Fulco, et al. (2003) Mol. Cell 12:51-62).
(§3) Primary Culture of Neonatal Rat Ventricular Myocytes. Primary cultures of cardiac ventricular myocytes were prepared from 1-day-old Crl: (WI) BR-Wistar rats according to standard methods (Tomita, et al. (2003) Circ. Res. 93:12-22). Myocytes were cultured under serum-free conditions for 48 hours before experiments. Cell size and total protein content were obtained (Tomita, et al. (2003) supra).
Assays for Apoptosis. Histone-associated DNA fragments were quantitated by the Cell Death Detection ELISA (ROCHE; Yamamoto, et al. (2003) J. Clin. Invest. 111:1463-1474).

[2] = tested on: cardiac myocytes; assay: TUNEL staining of cultured cardiac myocytes; assay type: cell-based, rat; details: for TUNEL positive myocytes: compound alone
Method: Subsequently, it was determined whether cardiac myocyte death by Sir2α inhibition was due to apoptosis. […] To examine whether activation of caspase-3 was involved in myocyte death induced by NAM and TSA, the effect of DEVD-CHO, a cell permeable inhibitor of caspase-3, upon myocyte death was examined.
Primary Culture of Neonatal Rat Ventricular Myocytes. […] Myocytes were cultured under serum-free conditions for 48 hours before experiments.

[3] = tested on: mouse hearts; assay type: in vivo, mice; parameters: LV contraction (EF, % FS): dose or concentration left out as unconfirmed
Method: Tg-Sirt2α (n=6) and NTg (n=4) mice from line 40 were treated with ip injection of 10 mg/kg of paraquat (PQ) for 2 weeks. LV ejection fraction (EF, FIG. 8A) and % fractional shortening (% FS, FIG. 8B) of Tg-Sirt2α and NTg mice after PQ treatment is shown. […] Immunoblot analyses of catalase were conducted, using cardiac myocytes transduced with adenovirus vectors harboring constitutively actively FOXO1a (F-CA), dominant negative FOXO1a (F-DN), or Sirt2α. n=3-4. Values are presented as means±SE.
To this end, mice were treated for 14 days with paraquat, an inducer of oxidative stress. […] The paraquat-induced increases in oxidative stress were abolished in Tg-Sirt1 line 40 (FIG. 8D). […] Paraquat-induced increases in expression of catalase, an antioxidant, were greater in Tg-Sirt1 than in NTg hearts (FIG. 8E).

[4] = tested on: myocytes; details: treatment with resveratrol; Pillai et al. 2005; cited from earlier work
[5] = tested on: Histones 3 and 4; assay: Histone acetylation in treated cardiac myocytes (immunoblot); assay type: cell-based, rat
[6] = tested on: neonatal rat cardiac myocytes; assay: Cardiac myocyte morphology and death (shrinkage, detachment, cell size); assay type: cell-based
Method: A 110 kD protein was detected predominantly in the nuclear fraction. To examine the function of Sir2α in cardiac myocytes, nicotinamide (NAM) and sirtinol, inhibitors of Sir2 (Bitterman, et al. (2002) J. Biol. Chem. 277:45099-45107; Grozinger, et al. (2001) J. Biol. Chem. 276:38837-38843) were employed. Myocytes were also treated with trichostatin A (TSA), an inhibitor of class I and II HDACs (Johnstone (2002) Nat. Rev. Drug Discov. 1:287-299).
To examine whether cardiac myocyte apoptosis due to inhibition of Sir2α is mediated by p53, cardiac myocytes were transduced with adenovirus harboring temperature-sensitive dominant-negative p53 and cultured at 39° C. […] The temperature-sensitive dominant-negative p53 construct works as a dominant-negative only at high temperatures (Regula and Kirshenbaum (2001) J. Mol. Cell. Cardiol. 33:1435-1445). Consistent with this, the cell death inhibitory effect of dominant-negative p53 against NAM treatment was not observed at 32° C.
as §2, §3

[7] = tested on: p53; assay: p53-Luc reporter gene assay; assay type: cell-based, rat; details: treated myocytes
Method: Transfection and Luciferase Assays. One million cells were transfected with 4 μg of plasmid. The transcriptional activity of p53 was evaluated using p53-Luc (2 pg) containing 15 copies of specific p53 DNA-binding sequence ([sequence]). A plasmid carrying the β-galactosidase gene (SV40-β-gal; 1 μg) was cotransfected. One microgram of expression plasmids pcDNA3.1, pcDNA3.1-Sir2α, or pcDNA 3.1-DN-Sir2α was employed.

[8] = tested on: caspase-3; assay: Caspase-3 cleavage in cardiac myocytes; assay type: cell-based, rat; details: treated cardiac myocytes
Method: as §1
To further confirm that inhibition of endogenous Sir2α stimulates cardiac myocyte apoptosis, the effects of a dominant-negative Sir2α were examined. […] The level of cleaved caspase-3 was higher in dominant-negative Sir2α-transduced myocytes than in LacZ-transduced cells.
Immunoblot Analysis. Nuclear fractions were prepared as described (Tomita, et al. (2003) supra). Whole-cell lysates were obtained using Lysis Buffer A, containing 150 mmol/L NaCl, 50 mmol/L Tris, pH 7.5, 0.1 mmol/L Na3VO4, 1 mmol/L NaF, 0.5 mmol 4-(2-aminoethyl)benzenesulfonyl fluoride hydrochloride, 1% NONIDET P-40, 0.1% sodium dodecyl sulfate, 0.5% deoxycholic acid, 0.5 μg/mL leupeptin, and 0.5 μg/mL aprotinin. For immunoblotting, the antimurine Sir2α antibody (1:10 000) was used.

[9] = tested on: p53; assay: Immunoblot of nuclear fractions with anti-acetylated p53 antibodies; assay type: cell-based, rat; details: for Acetylation of p53 at K320 / Acetylation of p53 at K373/382: nuclear fractions of treated myocytes; for total amount of p53: treated myocytes
Excerpt: To examine whether the status of acetylation in p53 is affected by NAM or TSA in cardiac myocytes, nuclear fractions were subjected to immunoblot analysis with anti-acetylated p53 antibodies.
Anti-Sir2α antibody, anti-acetyl-p53 (Lys 320 and Lys 373/382) antibodies and anti-acetyl histone H3 and H4 antibodies were purchased from Upstate. Sirtinol and DEVD-CHO were from CALBIOCHEM, and Trichostatin A (TSA) was from SIGMA.

Molecule: CC(O)C(=O)O (stereo not drawn) [lactate]
cytoplasmic accumulation of mono- and oligo-nucleosomes induced by serum starvation ([1]; 10 mM, 48 hours (FIG. 1C)): stimulated it

Molecule: DEVD-CHO
TUNEL positive myocytes caused by NAM ([2]; effect of caspase-3 inhibitor on NAM-induced death): prevented increases in TUNEL positive myocytes
TUNEL-positive myocytes due to TSA ([2]; effect of caspase-3 inhibitor on TSA-induced death): did not affect

Molecule: C[n+]1ccc(-c2cc[n+](C)cc2)cc1 [Paraquat, paraquat]
LV contraction (EF, % FS) [3]: significantly reduced LV contraction
oxidative stress (8-OHdG staining, MDA content) ([3]; NTg mouse hearts, ip 10 mg/kg, 14 days): significantly increased the extent of oxidative stress

Molecule: Oc1ccc(C=Cc2cc(O)cc(O)c2)cc1 [resveratrol]
myocyte cell death in vitro [4]: prevents myocyte cell death

Molecule: CC(/C=C/C(=O)NO)=C\[C@@H](C)C(=O)c1ccc(N(C)C)cc1 [TSA, trichostatin A]
acetylation of Histones 3 and 4 [5]: increased acetylation of Histones 3 and 4
myocyte death ([6]; at high doses): caused death in some myocytes at high doses
cell size ([6]; treated cardiac myocytes): modestly increased cell size
activity of p53-Luc [7]: failed to activate
cleavage of caspase-3 [8]: did not
TUNEL positive myocytes [2]: modest increase in TUNEL-positive myocytes
mono- and oligo-nucleosomes in the cytoplasm (nuclear fragmentation) [1]: significantly increased nuclear fragmentation; also recorded: not as potent as NAM
Acetylation of p53 at K320 [9]: not
Acetylation of p53 at K373/382 [9]: not
total amount of p53 [9]: Neither NAM nor TSA significantly changed

cleavage of caspase-3 [8]: induced cleavage of caspase-3
Molecule: NC(=O)c1cccnc1 [NAM, nicotinamide]
acetylation of Histones 3 and 4 [5]: increased acetylation of Histones 3 and 4
cell shrinkage and detachment, consistent with apoptosis ([6]; treatment for 48 hours): dose-dependent increases in cell shrinkage and detachment
activity of p53-Luc [7]: dose-dependently increased
TUNEL positive myocytes [2]: increases in TUNEL positive myocytes
mono- and oligo-nucleosomes in the cytoplasm (nuclear fragmentation) [1]: significantly increased
Acetylation of p53 at K320 [9]: 2.8 fold
Acetylation of p53 at K373/382 [9]: 1.8 fold
total amount of p53 [9]: Neither NAM nor TSA significantly changed

cleavage of caspase-3 [8]: induced cleavage of caspase-3
Molecule: CC(NC(=O)c1ccccc1/N=C/c1c(O)ccc2ccccc12)c1ccccc1 (stereo not drawn) [sirtinol]
mono- and oligo-nucleosomes in the cytoplasm (nuclear fragmentation) [1]: significantly increased
